Patent publication US10857232B2, “Surfactant composition” (Enza Biotech AB, priority 2013, dated 2020)

Experiments:
[1] = literature values [11-13]; cited from earlier work
[2] = target: insulin (Homo sapiens, UniProt P01308); test: Inhibition of peptide and protein aggregation (insulin precipitation); type: physicochemical; conditions: insulin 0.4 mg/ml, surfactant 1.4 mg/ml, pH 6.8 or 7.4, 25 and 40° C., 2-12 weeks
Description: Inhibition of peptide and protein aggregation is crucial for the physical stability and safety, particularly for pharmaceutics for injection (injectabilia). Therefore, surfactants are normally applied as inhibitors of peptide and protein aggregation in such formulations. The ability, of a C16G8/14 mixture to inhibit peptide and protein aggregation in solution was investigated using insulin as model peptide.

Chain of insulin (P01308 25-54 limits assumed, species assumed): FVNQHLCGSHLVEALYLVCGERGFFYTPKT
Chain of insulin (P01308 90-110 limits assumed, species assumed): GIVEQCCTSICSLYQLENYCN

| Compound | Krafft point [1] | Inhibition of insulin precipitation (visual inspection) [2] |
| --- | --- | --- |
| CCCCCCCCCCCCO[C@@H]1O[C@H](CO)[C@@H](O)[C@H](O)[C@H]1O [C12G1] | 38 °C | – |
| CCCCCCCCCCCCCCO[C@@H]1O[C@H](CO)[C@@H](O[C@@H]2O[C@@H](CO)[C@H](O)[C@@H](O)[C@@H]2O)[C@H](O)[C@H]1O (stereo in doubt) [C14G2, tetradecylmaltoside] | 32 °C | unable to inhibit precipitation, even under non-accelerated conditions |
